Measured values taken from US10420731B1, “Method of synthesizing lignin-based nanocompositions” (KING SAUD UNIVERSITY, priority 2019, dated 2019).

Tests used:
Caco-2 cells = test: MTT cell viability assay; type: cell-based, human; details: CUR 50 μM and 80 μM, 24 h, MTT (FIG. 9)
Procedure: Differentiated Caco-2 cells (ATCC, Rockville, Md., USA) were maintained in DMEM (4.5 g/L glucose) medium supplemented with 20% FBS (HyClone; Thermo Scientific, Waltham, Mass., USA), 1% non-essential amino acids, 1% L-glutamine, 1% streptomycin (100 μg/ml) and penicillin (100 IU/ml). The growth medium was changed every day in the first two weeks followed by three times a week.
Caco-2 cell line was transferred into 96-well plates, at a density of 5×10^4 cells per well. After cell adhesion, the culture media was removed and the cells were incubated with 250 μL of culture media containing a concentration range from 10 μM to 300 μM of CUR as free, CUR loaded LG NPs and equivalent unloaded LG NPs.
For free CUR, the samples were prepared from a stock solution in DMSO with appropriate dilutions to reach a maximum of 2% (v/v) of DMSO in each well. After a 24 h incubation period, the supernatant was removed and replaced by 100 μL of MTT solution (0.5 mg/ml) at (37 C°, 5% CO2) to allow MTT to be metabolized. […] Optical density was read at a wavelength of 570 nm using a microplate reader (ELX 800, Bio-Tek Instruments, Winooski, Vt., USA).
The induced cytotoxicity was calculated by comparing the optical density (OD) values against control wells. […] All measurements were performed in triplicate and the means±standard deviation (SD) were calculated.

Caco-2 cell monolayer = details: in-vitro Caco-2 model system, previously known; cited from earlier work
[1] = reported; cited from earlier work
[2] = prior study; cited from earlier work

COc1cc(/C=C/C(=O)CC(=O)/C=C/c2ccc(O)c(OC)c2)ccc1O [curcumin]
Cell viability (Caco-2 cells): below 50%
Papp (Caco-2 cell monolayer): < 3.18 ×10⁻⁶ cm/s
log P [1]: 3.7
Oral bioavailability [2]: 1%
